Measured values as given in patent US12290526B2 (priority 2018, dated 2025).

Assays:
[1] = tested on: gout induced by intra-articular uric acid at 20% in rats; assay: PIFIR model (pain-induced functional impairment, uric acid 20%), analgesic activity after topical administration; type: in vivo, Female Wistar rats; details: for ability to walk and visible adverse effects: doses used (3.2-31.6 mg/Kg topical), observation period of 5 h
Source text: Female Wistar rats [Crl:(WI)BR] were employed with a weight of between 180 and 200 g. All the experimental procedures followed the recommendations of the committee for Research and Ethical Issues of the International Association for the Study of Pain and the Guidelines on Ethical Standards for Investigations of Experiment Pain in Animals. The number of animals for experimentation was kept to a minimum: 6 rats per experimental point. The animals were kept in a room with alternating dark/light cycles.
Twelve hours before the experiments, the fur that covers the rats' major muscle group that covers the femur (4 cm×4 cm) on the outer side of the hind right paw was very carefully clipped with some scissors, leaving the fur cut to a maximum length of 2 mm and taking care not to injure the rats' skin. Food was also removed at this moment, leaving them only free access to water. All the experiments were performed during the light phase, with the animals only being used once.
The analgesic effects are assessed employing the PIFIR model, in other words, the rats were anesthetized in a glass desiccator, saturated with ether vapor. The gout was induced by applying an intra-articular injection (i.a.) of 0.05 ml of uric acid suspended in mineral oil in the right hind member, exactly in the femur-tibia-kneecap joint. A 1 mL glass syringe with a 4-mm-long No. 22 needle is used for the intra-articular injection. Immediately afterwards, an electrode is attached to each hind paw in the middle of the plantar calluses. The rats were left to recover from the anesthesia and placed in a 30-cm-diameter rotary stainless-steel cylinder. The cylinder was turned at 4 r.p.m., forcing the rats to walk for 3 min every half hour, for a total of 5 hours. The variable measured was the contact time of each one of the rats' hind paws in the cylinder. When the electrode makes contact with the cylinder a circuit is closed and the ratio between the contact time of the injured paw in respect of the uninjured one was recorded on a computer.
The temporary courses of each treatment for 5 continuous hours were determined, employing an “n” of 6 rats per treatment. For the purpose of this study, inducing harm in the experimental animals was unavoidable. However, care was taken to avoid causing unnecessary suffering to the animals. At the end of the experimental determinations, the rats were immediately sacrificed.
From the aforementioned experimental model, the results obtained from the analgesic assessment of the combination are expressed as a Functionality Index percentage (FI %). This FI % is the ratio obtained by dividing the contact time of the limb with uric acid by the contact time of the limb against of the same rats, and multiplying the result by 100. The temporary course (TC) curves are built by plotting FI % or Dysfunction against time (h). The analgesic or antinociceptive effect was estimated as the recuperation of FI %. […] All the values plotted in the figures correspond to the mean±error standard for 6 animals.

[2] = cited from earlier work
[3] = cited from earlier work; remark: listed apart in the source
[4] = 31.6 mg/Kg topical administration

Compound | maximum effect (Emax), recovery of Functionality Index percentage (FI %) ([1]; 31.6 mg/Kg topical administration, rats, uric acid 20%, 5 h observation, mean ± standard error, n=6) | analgesic effects in temporary courses (in words) ([1]; 3.16, 5.62, 10.0, 17.78 and 31.62 mg/Kg topical administration) | ability to walk and visible adverse effects [1] | time over which the concentration in the top skin layers slowly declines ([2]; after the drug product is removed from the skin) | amount of aceclofenac absorbed, of the total dose applied ([2]; applied to the skin) | amount retained on the top layers of skin, of the dose applied ([2]; applied to the skin) | analgesic effects in temporary course (in words) [1, 4] | time point of the maximum effect [1, 4] | analgesic effects in temporary courses (in words) ([1]; 3.16, 10.0 and 17.8 mg/Kg topical administration) | solubility in water [3]
O=C(O)COC(=O)Cc1ccccc1Nc1c(Cl)cccc1Cl [aceclofenac, (2-{2-[(2,6-Dichlorophenyl)amino]phenyl}acetoxy) acetic acid] | 42.0±6.9% | does show analgesic effects | did not affect the ability of the rats to walk during the observation period or cause any visible adverse effect | more than 16 hours | 13% | 6 to 9% |  |  |  | 
C[C@H]1C[C@H]2[C@@H]3CCC4=CC(=O)C=C[C@]4(C)[C@@]3(F)[C@@H](O)C[C@]2(C)[C@@]1(O)C(=O)CO [betamethasone, (11ß,16ß)-9-fluoro-11,17,21-trihydroxy-16-methylpregna-1,4-diene-3,20-dione] |  |  | did not affect the ability of the rats to walk during the observation period or cause any visible adverse effect |  |  |  | modest analgesic effects | 3.5 h | does not generate analgesic effects | insoluble in water
